# Measurements reported in ChEMBL document CHEMBL4177616, “Potent anti-melanogenic activity and favorable toxicity profile of selected 4-phenyl hydroxycoumarins in the zebrafish model and the computational molecular modeling studies” (Bioorg Med Chem, 2017).
# The source made the active and inactive calls. The calls are words filed in the database; no cut-off is given here.
# Columns and labels:
# Tyrosinase (Danio rerio) [1] = biological target: T1, Tyrosinase (Danio rerio) (UniProt A0A8M1PAD4); test: Inhibition of zebrafish embryo tyrosinase assessed as melanin production at 5 ug/ml after 48 hrs relative to control; values are per cent of control
# T1 sequence (whole entry): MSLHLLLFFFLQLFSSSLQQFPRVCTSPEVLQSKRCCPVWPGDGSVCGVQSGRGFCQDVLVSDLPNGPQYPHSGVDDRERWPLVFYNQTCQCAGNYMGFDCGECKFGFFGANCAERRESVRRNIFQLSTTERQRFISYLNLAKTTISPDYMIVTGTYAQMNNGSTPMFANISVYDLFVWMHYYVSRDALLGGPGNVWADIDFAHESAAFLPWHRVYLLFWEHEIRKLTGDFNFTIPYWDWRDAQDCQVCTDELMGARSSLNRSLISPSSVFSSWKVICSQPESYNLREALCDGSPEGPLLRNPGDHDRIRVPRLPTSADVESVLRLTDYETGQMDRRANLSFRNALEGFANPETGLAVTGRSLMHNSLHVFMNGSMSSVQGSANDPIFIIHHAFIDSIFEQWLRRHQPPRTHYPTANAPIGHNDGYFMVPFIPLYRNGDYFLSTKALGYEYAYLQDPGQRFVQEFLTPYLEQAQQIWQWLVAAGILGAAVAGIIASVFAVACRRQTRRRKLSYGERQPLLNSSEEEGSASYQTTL
# Danio rerio [2] = test: Toxicity in wild type zebrafish embryos assessed as yolk edema at 50 ug/ml treated for 96 hrs post fertilization starting from 6 hrs post fertilization by inverted microscopic analysis relative to control; assay type: organism-based; settings: in vivo
# Danio rerio [3] = species: Danio rerio; test: Toxicity in wild type zebrafish embryos assessed as growth retardation at 15 ug/ml treated for 96 hrs post fertilization starting from 6 hrs post fertilization by inverted microscopic analysis relative to control; assay type: organism-based; settings: in vivo
# Danio rerio [4] = species: Danio rerio; test: Toxicity in wild type zebrafish embryos assessed as eyes at 15 ug/ml treated for 96 hrs post fertilization starting from 6 hrs post fertilization by inverted microscopic analysis relative to control; assay type: organism-based; settings: in vivo
# Danio rerio [5] = species: Danio rerio; test: Toxicity in wild type zebrafish embryos assessed as growth retardation at 50 ug/ml treated for 96 hrs post fertilization starting from 6 hrs post fertilization by inverted microscopic analysis relative to control; assay type: organism-based; settings: in vivo
# Danio rerio [6] = species: Danio rerio; test: Toxicity in wild type zebrafish embryos assessed as teratogenic embryo at 15 ug/ml treated for 96 hrs post fertilization starting from 6 hrs post fertilization by inverted microscopic analysis relative to control; assay type: organism-based; settings: in vivo
# Neutrophil [7] = test: Anti-melanogenic activity in mpx:GFP transgenic zebrafish 24 hrs post fertilization embryo neutrophils assessed as decrease in pigmentation at 25 ug/ml; assay type: functional, cell-based; settings: Danio rerio
# Melanocyte [8] = test: Cytotoxicity against wild type zebrafish embryo melanocytes assessed as change in morphology at to 25 ug/ml treated for 72 hrs post fertilization starting from 6 to 24 hrs post fertilization; assay type: cell-based, Danio rerio
# Tyrosinase (Danio rerio) [9] = biological target: T1, Tyrosinase (Danio rerio); test: Inhibition of zebrafish embryo tyrosinase assessed as residual activity at 15 ug/ml after 48 hrs relative to control
# Tyrosinase (Danio rerio) [10] = biological target: T1, Tyrosinase (Danio rerio); test: Potency index, ratio of kojic acid IC50 to compound IC50 for zebrafish embryo tyrosinase assessed as melanin production
# Tyrosinase [11] = biological target: T2, Tyrosinase (Danio rerio, UniProt A0A8M1PAD4); test: Inhibition of zebrafish embryo tyrosinase assessed as melanin production after 48 hrs
# T2 sequence (A0A8M1PAD4 whole entry): T1 sequence (whole entry)
# Danio rerio [12] = species: Danio rerio; test: Toxicity in wild type zebrafish embryos assessed as skeletal deformities at 15 ug/ml treated for 96 hrs post fertilization starting from 6 hrs post fertilization by inverted microscopic analysis relative to control; assay type: organism-based; settings: in vivo
# Danio rerio [13] = species: Danio rerio; test: Toxicity in wild type zebrafish embryos assessed as skeletal deformities at 50 ug/ml treated for 96 hrs post fertilization starting from 6 hrs post fertilization by inverted microscopic analysis relative to control; assay type: organism-based; settings: in vivo
# Danio rerio [14] = species: Danio rerio; test: Toxicity in wild type zebrafish embryos assessed as head malformation at 15 ug/ml treated for 96 hrs post fertilization starting from 6 hrs post fertilization by inverted microscopic analysis relative to control; assay type: organism-based; settings: in vivo
# Danio rerio [15] = species: Danio rerio; test: Toxicity in wild type zebrafish embryos assessed as skeletal deformities at 20 ug/ml treated for 96 hrs post fertilization starting from 6 hrs post fertilization by inverted microscopic analysis relative to control; assay type: organism-based; settings: in vivo
# Danio rerio [16] = species: Danio rerio; test: Toxicity in wild type zebrafish embryos assessed as otoliths at 15 ug/ml treated for 96 hrs post fertilization starting from 6 hrs post fertilization by inverted microscopic analysis relative to control; assay type: organism-based; settings: in vivo
# Danio rerio [17] = species: Danio rerio; test: Toxicity in wild type zebrafish embryos assessed as otoliths at 50 ug/ml treated for 96 hrs post fertilization starting from 6 hrs post fertilization by inverted microscopic analysis relative to control; assay type: organism-based; settings: in vivo
# Danio rerio [18] = species: Danio rerio; test: Toxicity in wild type zebrafish embryos assessed as unhatched embryo at 15 ug/ml treated for 96 hrs post fertilization starting from 6 hrs post fertilization by inverted microscopic analysis relative to control; assay type: organism-based; settings: in vivo
# Tyrosinase (Danio rerio) [19] = biological target: T1, Tyrosinase (Danio rerio); test: Potency index, ratio of kojic acid IC50 to compound IC50 for zebrafish embryo tyrosinase assessed as residual activity
# Tyrosinase (Danio rerio) [20] = biological target: T1, Tyrosinase (Danio rerio); test: Inhibition of zebrafish embryo tyrosinase assessed as residual activity at 10 ug/ml after 48 hrs relative to control
# Danio rerio [21] = species: Danio rerio; test: Toxicity in wild type zebrafish embryos assessed as normal embryo at 15 ug/ml treated for 96 hrs post fertilization starting from 6 hrs post fertilization by inverted microscopic analysis relative to control; assay type: organism-based; settings: in vivo
# Danio rerio [22] = test: Toxicity in wild type zebrafish embryos assessed as pericardial edema at 50 ug/ml treated for 96 hrs post fertilization starting from 6 hrs post fertilization by inverted microscopic analysis relative to control; assay type: organism-based; settings: in vivo
# Danio rerio [23] = test: Toxicity in wild type zebrafish embryos assessed as yolk edema at 15 ug/ml treated for 96 hrs post fertilization starting from 6 hrs post fertilization by inverted microscopic analysis relative to control; assay type: organism-based; settings: in vivo
# Melanocyte [24] = test: Cytotoxicity against wild type zebrafish embryo melanocytes assessed as size of melanocyte at to 25 ug/ml treated for 72 hrs post fertilization starting from 6 to 24 hrs post fertilization; assay type: cell-based, Danio rerio
# Tyrosinase [25] = biological target: T2, Tyrosinase; test: Inhibition of zebrafish embryo tyrosinase assessed as residual activity after 48 hrs
# Danio rerio [26] = species: Danio rerio; test: Toxicity in wild type zebrafish embryos assessed as blood circulation at 15 ug/ml treated for 96 hrs post fertilization starting from 6 hrs post fertilization by inverted microscopic analysis relative to control; assay type: organism-based; settings: in vivo
# Danio rerio [27] = test: Toxicity in wild type zebrafish embryos assessed as pericardial edema at 15 ug/ml treated for 96 hrs post fertilization starting from 6 hrs post fertilization by inverted microscopic analysis relative to control; assay type: organism-based; settings: in vivo
# Neutrophil [28] = test: Cytotoxicity against […] transgenic zebrafish 24 hrs post fertilization embryo neutrophils assessed as reduction in neutrophil at 25 ug/ml treated for 72 hrs post fertilization starting from 6 to 24 hrs post fertilization; assay type: cell-based, Danio rerio
# Danio rerio [29] = species: Danio rerio; test: Toxicity in wild type zebrafish embryos assessed as head malformation at 20 ug/ml treated for 96 hrs post fertilization starting from 6 hrs post fertilization by inverted microscopic analysis relative to control; assay type: organism-based; settings: in vivo
# Tyrosinase (Danio rerio) [30] = biological target: T1, Tyrosinase (Danio rerio); test: Inhibition of zebrafish embryo tyrosinase assessed as melanin production at 10 ug/ml after 48 hrs relative to control; values are per cent of control
# Danio rerio [31] = species: Danio rerio; test: Toxicity in wild type zebrafish embryos assessed as blood circulation at 50 ug/ml treated for 96 hrs post fertilization starting from 6 hrs post fertilization by inverted microscopic analysis relative to control; assay type: organism-based; settings: in vivo
# Danio rerio [32] = species: Danio rerio; test: Toxicity in wild type zebrafish embryos assessed as heart beat at 15 ug/ml treated for 96 hrs post fertilization starting from 6 hrs post fertilization by inverted microscopic analysis relative to control; assay type: organism-based; settings: in vivo
compound,measurement,setting,value
O=c1cc(-c2ccccc2)c2ccc(O)cc2o1,melanin content % of control,Tyrosinase (Danio rerio) [1],93%
same,Activity,Danio rerio [2],0%
same,Activity,Danio rerio [3],0%
same,Activity,Danio rerio [4],0%
same,Activity,Danio rerio [5],0%
same,Activity,Danio rerio [6],0%
same,Activity,Neutrophil [7],Active
same,Activity,Melanocyte [8],Non-Toxic
same,Activity,Tyrosinase (Danio rerio) [9],92%
same,Ratio IC50,Tyrosinase (Danio rerio) [10],62
same,IC50,Tyrosinase [11],103 µM
same,Activity,Danio rerio [12],0%
same,Activity,Danio rerio [13],0%
same,Activity,Danio rerio [14],0%
same,Activity,Danio rerio [15],0%
same,Activity,Danio rerio [16],0%
same,Activity,Danio rerio [17],0%
same,Activity,Danio rerio [18],0%
same,Ratio IC50,Tyrosinase (Danio rerio) [19],41
same,Activity,Tyrosinase (Danio rerio) [20],97%
same,Activity,Danio rerio [21],100%
same,Activity,Danio rerio [22],0%
same,Activity,Danio rerio [23],0%
same,Activity,Melanocyte [24],Non-Toxic
same,IC50,Tyrosinase [25],205 µM
same,Activity,Danio rerio [26],0%
same,Activity,Danio rerio [27],0%
same,Activity,Neutrophil [28],Non-Toxic
same,Activity,Danio rerio [29],0%
same,melanin content % of control,Tyrosinase (Danio rerio) [30],91%
same,Activity,Danio rerio [31],0%
same,Activity,Danio rerio [32],0%
O=c1cc(-c2ccccc2)c2c(O)cc(O)cc2o1,melanin content % of control,Tyrosinase (Danio rerio) [1],63%
same,Activity,Danio rerio [2],0%
same,Activity,Danio rerio [3],0%
same,Activity,Danio rerio [4],0%
same,Activity,Danio rerio [5],0%
same,Activity,Danio rerio [6],0%
same,Activity,Neutrophil [7],Active
same,Activity,Melanocyte [8],Non-Toxic
same,Activity,Tyrosinase (Danio rerio) [9],76%
same,Ratio IC50,Tyrosinase (Danio rerio) [10],147
same,IC50,Tyrosinase [11],41.3 µM
same,Activity,Danio rerio [12],0%
same,Activity,Danio rerio [13],25%
same,Activity,Danio rerio [14],0%
same,Activity,Danio rerio [15],0%
same,Activity,Danio rerio [16],0%
same,Activity,Danio rerio [17],0%
same,Activity,Danio rerio [18],0%
same,Ratio IC50,Tyrosinase (Danio rerio) [19],86
same,Activity,Tyrosinase (Danio rerio) [20],82%
same,Activity,Danio rerio [21],100%
same,Activity,Danio rerio [22],5%
same,Activity,Danio rerio [23],0%
same,Activity,Melanocyte [24],Non-Toxic
same,IC50,Tyrosinase [25],90.9 µM
same,Activity,Danio rerio [26],0%
same,Activity,Danio rerio [27],0%
same,Activity,Neutrophil [28],Non-Toxic
same,Activity,Danio rerio [29],0%
same,melanin content % of control,Tyrosinase (Danio rerio) [30],48%
same,Activity,Danio rerio [31],0%
same,Activity,Danio rerio [32],0%
